Data as given in publication PMC3528769, “Comparative Study of the Fatty Acid Binding Process of a New FABP from Cherax quadricarinatus by Fluorescence Intensity, Lifetime and Anisotropy” (PLoS ONE, 2012).

Molecular target: Cq-FABP (Cherax quadricarinatus, UniProt L0I6Z9)
Experiment: Time-resolved Trp fluorescence lifetime (single-photon counting) with ANS and PA
Format: binding
Settings: for FRET efficiency: from lifetimes
Experimental: The distribution of fluorescence lifetimes of tryptophan was determined by monitoring the intensity decay, I(t), using the single-photon counting technique [27]–[31]. Briefly, the excitation light pulse source was a Ti:sapphire laser (Mai Tai femtosecond laser, Spectra Physics, Mountain View, CA, USA) associated with a third harmonic generator tuned to 296 nm. The laser frequency was reduced from 80 to 8 MHz using a pulse picker (Spectra Physics). Fluorescence emission was detected by a microchannel plate photomultiplier (Hamamatsu model R3809U-05) through a monochromator (ARC SpectraPro-150) set at 340 nm (Δλ = 15 nm) with the emission polarizer set at the magic angle (54.7°). A time-correlated single-photon counting SPC-430 card (Becker–Hickl, Berlin, Germany) was used for the acquisition. Experiments were performed at 25°C using 5 µM Cq-FABP in buffer C. The average fluorescence lifetime values (τm), as reported in Table 1, were calculated from the lifetime distributions recovered by the maximum entropy method, [29], [32]. For example, Cq-FABP alone was characterized by three fluorescence lifetimes (τ1 = 0.6 ns (6%), τ2 = 2.67 ns (53%), τ3 = 3.89 (41%); τm = 3.04 ns).

[1] = 5 µM Cq-FABP + 50 µM ANS + 70 µM PA
[2] = 5 µM Cq-FABP + 200 µM ANS + 70 µM PA

Cq-FABP, sequence (L0I6Z9 entry or part of it): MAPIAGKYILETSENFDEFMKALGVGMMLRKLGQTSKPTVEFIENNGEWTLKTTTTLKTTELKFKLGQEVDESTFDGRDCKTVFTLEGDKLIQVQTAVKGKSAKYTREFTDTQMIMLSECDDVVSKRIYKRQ

Average fluorescence Lifetime, τm [1]: 2.77 ns
FRET efficiency [1]: 8.9%
Average fluorescence Lifetime, τm (5 µM Cq-FABP + 70 µM PA): 2.96 ns
Average fluorescence Lifetime, τm [2]: 2.34 ns
FRET efficiency [2]: 23%
Compound: CCCCCCCCCCCCCCCC(=O)O [PA, Palmitic acid]
